Data: paper PMC3542062, “A phenyl-thiadiazolylidene-amine derivative ejects zinc from retroviral nucleocapsid zinc fingers and inactivates HIV virions” (Retrovirology, 2012)

Key:
[1] = test system: HIV-2 ROD; assay: MT-4/MTT-assay, protection against virus-induced cytopathic effect; assay type: cell-based; details: Human immunodeficiency virus 2, MT4, 120 h; MT-4 cells, MTT, 5 days after infection
[2] = test system: SIV Mac251; assay: as above; assay type: cell-based; details: MT-4 cells, MTT, 5 days after infection
[3] = Cytotoxicity in mock-infected MT-4 cells (MTT); assay type: cell-based; details: human, mock-infected MT-4 cells
[4] = test system: HIV-1 IIIB; assay: Anti-HIV activity in CEM cells (cytopathogenicity); assay type: cell-based; details: Human immunodeficiency virus 1, IIIB, CCRF-CEM
[5] = test system: HIV-2 ROD; assay: Anti-HIV activity in CEM cells (cytopathogenicity); assay type: cell-based; details: Human immunodeficiency virus 2, CCRF-CEM
[6] = Cytostatic activity, CEM cell proliferation; assay type: cell-based, human; details: human, CEM T-lymphocyte cells
[7] = test system: NL4.3/DS5000R; assay: GFP-assay in Jurkat A72 (LTR-GFP) cells; assay type: cell-based, HIV-1; details: Human immunodeficiency virus 1, Jurkat, 72 h, read-out: EC50 NL4.3/DS5000R
[8] = test system: NL4.3/AMD3100R; assay: microbe, parasite or virus in culture; assay type: cell-based, HIV-1; details: Human immunodeficiency virus 1, Jurkat, 72 h, read-out: EC50 NL4.3/AMD3100R
[9] = test system: UG275 subtype A; assay: Virucidal assay on clinical isolates, titration on PBMCs; assay type: cell-based, HIV-1; details: 125 μM, 1 h 37°C, untreated control 16242
[10] = test system: BZ163 subtype F; assay: as above; assay type: cell-based, HIV-1; details: 125 μM, 1 h 37°C, untreated control 16242
[11] = test system: HIV-1 NL4.3 transmission from Raji/DC-SIGN cells to C8166 cells; assay: Transmission of DC-SIGN-captured virus to C8166 cells in presence of compound (procedure C); assay type: cell-based; details: Human immunodeficiency virus 1; HIV-captured Raji/DC-SIGN cocultivated with C8166 in presence of compound; giant cell formation
[12] = test system: HIV-1 virus particles; assay: Virion-associated genomic RNA of pre-treated virus (RT-qPCR, Northern blot); details: compound-cleared HIV-1 virus stock, RT-qPCR or Northern blot
[13] = test system: NCp7(11-55); assay: Zinc ejection monitored by Trp37 intrinsic fluorescence; assay type: biochemical, HIV-1
Method: Ejection of 50% of the zinc is observed in less than 5 minutes (Figure 4C).
As a reference, NCp7(11-55) was treated with 1 mM EDTA, a well known zinc chelator (triangle). […] (B) Time-dependent zinc ejection from NCp7(11-55). […] The data points (stars) corresponded to the fluorescence intensity at the maximum emission wavelength from panel B. Solid line represents a double-exponential fit to the data. (D) Zinc ejection from NCp7(11-55) in the presence of an excess of zinc. Emission spectra of the NCp7(11-55) (1 μM) in the presence of an excess of 100 μM zinc (triangle). […] The emission spectrum of NCp7(11-55) incubated with 1 mM EDTA (triangle) for one hour is given as a reference.
The NC(11-55) peptide was synthesized by solid phase peptide synthesis on a 433A synthesizer (ABI, Foster City, CA), as previously described. The lyophilized peptide was dissolved in water, and its concentration was determined using an extinction coefficient of 5,700 M^–1 x cm^–1 at 280 nm. Next, 2.5 molar equivalents of ZnSO4 were added to the peptide and pH was raised to its final value, by adding buffer. The increase of pH was done only after zinc addition to avoid oxidization of the zinc-free peptide.
Absorption spectra were recorded on a Cary 400 spectrophotometer. Fluorescence spectra were recorded at 20°C on a Fluorolog spectrofluorometer (Horiba, Jobin-Yvon), equipped with a thermostated cell compartment. Excitation wavelength was 295 nm and 520 nm, for NC(11-55) and Rh6G-5^′-cTAR-3^′-Dabcyl, respectively. The spectra were corrected for dilution and buffer fluorescence. The protein spectra were additionally corrected for screening effects due to the zinc ejecting agent, using: […]

[14] = test system: HIV-1 IIIB chronically-infected HuT-78 cells; assay: Gag processing in virions from HIV-1 IIIB chronically-infected HuT-78 cells (western blot); assay type: cell-based; details: HuT-78/IIIB cells treated 43 hours; WDO-217 50, 25 μM; ritonavir 2.7 μM; SRR-SB3 75, 15 μM
Method: Recently, it has been shown that this new mechanism involves acetylation of the NCp7 region of Gag, thereby blocking Gag processing.
HIV-1 IIIB virions from persistently infected HuT-78 cells treated with different concentrations of compound were analysed by gel electrophoresis and immunoblotted with antibody against capsid.
Chronically-infected HIV-1 IIIB HuT-78 cells (HuT-78/IIIB) were washed four times with PBS to remove all free virions before treatment and 2 × 10^5 cells were resuspended in 1 ml compound-containing medium for 43 hours at 37°C. Then, virions were prepared from clarified supernatants (10 min at 300 g) by centrifugation at 36670 g for 2 hours at 4°C. Protein from lysed virions were separated by SDS-PAGE on a NuPage® Novex 4-12% Bis-Tris gel (Invitrogen) and transferred on a hydrophobic polyvinylidene difluoride (PVDF) membrane (Amersham Hybond™-P). The blot was blocked overnight at 4°C by 5% dry milk powder in Western blot wash solution (WBWS; PBS + 0.5% Tween 20), washed three times for 5 minutes with WBWS and incubated with a mouse anti-HIV-1 p24 antibody (1:5000) from Abcam. The blot was then washed three times for 5 minutes with WBWS and incubated for 1 h with a goat anti-mouse IgG-HRP secondary antibody (1:2500) from Santa Cruz Biotechnology. […]

[15] = MTT-based viability assay in Jurkat cells; details: human
[16] = test system: HIV-1 NL4.3 capture by Raji/DC-SIGN cells; assay: HIV capture by Raji/DC-SIGN cells (procedure A), p24 ELISA; details: HIV pretreated 1 h with compound, then Raji/DC-SIGN cells; p24 of washed cell pellet
Method: After 60 minutes of pre-incubation with the Raji/DC-SIGN cells, unabsorbed virus and test compound were carefully removed by repeated washing steps, and the amount of captured virus was determined by measurement of the virus-associated p24 content on the Raji/DC-SIGN cell surface. The α(1-3)/(1-6)-mannose-specific plant lectin HHA was included as a positive control for inhibition of virus capture by Raji/DC-SIGN cells.
Then, 0.5 ml exponentially growing Raji/DC-SIGN cells (10^6 cells) was added, and the suspension further incubated at 37°C for 60 minutes. Subsequently, 39 ml medium was added and the cell suspension was centrifuged at 300 g for 10 minutes. The obtained pellet was washed again with 40 ml medium and after centrifugation, the cell pellet (containing DC-SIGN-bound virus) was analyzed for p24 antigen content by ELISA. […] In the above-described experiments, the mannose-binding entry inhibitor HHA was included as a reference compound.

[17] = 10 μM compound, 1 μM NCp7(11-55)

Cn1sc(=N)nc1-c1ccccc1 [WDO-217, 2-methyl-3-phenyl-2H-[1,2,4]thiadiazol-5-ylideneamine]
EC50 [1]: 2.3 ± 0.3 µM | EC50 [2]: 5.3 ± 1.5 µM | EC50 ([2]; Simian immunodeficiency virus, MT4, 120 h): 5 ± 1 µM | CC50 at 5 days [3]: ~72 µM | EC50 [4]: 8.3 ± 1.8 µM | EC50 [5]: 15 ± 6.7 µM | CC50 [6]: 94 ± 15 µM | EC50 [7]: 1.2 ± 0.1 µM | EC50 [8]: 1.7 ± 0.9 µM | CCID50/ml UG275 subtype A [9]: 2558 CCID50/ml | CCID50/ml BZ163 subtype F [10]: 2558 CCID50/ml | IC50 [11]: 8.3 ± 0.4 µM | viral genomic RNA content after treatment [12]: clear decrease | time to complete zinc ejection [13, 17]: 35 min | time to ejection of 50% of the zinc [13, 17]: less than 5 minutes | zinc ejection (decrease of Trp37 fluorescence, same as 1 mM EDTA) ([13]; 10-fold excess (10 μM), 1 h pre-incubation): efficiently ejects zinc | accumulation of unprocessed Gag polyprotein in progeny virus [14]: did not result in a drastic accumulation | CC50 [15]: 75 ± 11 µM | IC50 HIV-capture procedure A [16]: not able to prevent binding
